Reference: patent publication US12630602B2, “Methods and compositions for treating diseases and disorders of the nervous system” (Rutgers, The State University of New Jersey, priority 2016, dated 2026)

System: retinal cells expressing the inhibitory hM4Di DREADD
Experiment: Electroretinography (ERG) after CNO in rats expressing hM4Di DREADD in retina
Assay type: in vivo

C[N+]1([O-])CCN(C2=Nc3cc(Cl)ccc3Nc3ccccc32)CC1 [CNO, clozapine N-oxide]
ERG wave (CNO by intraperitoneal injection, 20 minutes after, rats with AAV-hSyn-hM4Di (FIG. 2C)): inhibition of the ERG wave
ERG, function in retinal cells (CNO eye drops, 10 minutes and 20 minutes after, rats with AAV-hSyn-hM4Di (FIG. 2D)): decreased function in retinal cells at both timepoints
eliciting DREADD function, eye drops versus systemic delivery (ERG, CNO via eye drops compared with systemic delivery): at least as successful
